These compounds were tested against T1, human SK3 channel (hKCa2.3) (Homo sapiens, UniProt Q9UGI6) (assay: Automated patch clamping (QPatch 16 HT whole-cell recordings)). Conditions: HEK-293 cells stably expressing hKCa2.3; currents measured at −80 mV; normalized to N-methyl bicuculline; read-out: IC50 in the Automated patch clamping assay (SK3 channel inhibition).
T1 construct: expressed in transfected cells
Format: cell-based
Outline: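 Automated whole-cell patch clamp on HEK-293 cells stably expressing hKCa2.3, symmetrical K+, 0.4 μM free intracellular Ca2+, pH 7.2 internal/7.4 external. Held at 0 mV, ramps −80 to +80 mV every 5 s; rising compound concentrations, currents at −80 mV corrected for run-down, normalized to 100 μM N-methyl bicuculline, IC50 derived.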

Q: Which IC50 does the source give for `CC(Nc1ncco1)c1cccc2[nH]c(NC(C)(CO)c3ccc(F)c(Cl)c3)nc12` (centres unmarked) [Example 31, 2-(3-chloro-4-fluorophenyl)-2-[(4-{1-[(1,3-oxazol-2-yl)amino]ethyl}-1H-1,3-benzodiazol-2-yl)amino]propan-1-ol] here?
A: The IC50 was under 30 µM.

Q: For `CC(CO)(Nc1nc2c(Cn3ccsc3=N)cccc2[nH]1)c1ccc(F)c(Cl)c1` (centres unmarked) [Example 32, 2-(3-chloro-4-fluorophenyl)-2-({4-[(2-imino-2,3-dihydro-1,3-thiazol-3-yl)methyl]-1H-1,3-benzodiazol-2-yl}amino)propan-1-ol], which IC50 is on record?
A: The IC50 was under 1 µM.

Q: Which IC50 does the source give for `CC(CO)(Nc1nc2c(Cn3cc[nH]c3=O)cccc2[nH]1)c1ccc(F)c(Cl)c1` (centres unmarked) [Example 33, 1-[(2-{[2-(3-chloro-4-fluorophenyl)-1-hydroxypropan-2-yl]amino}-1H-1,3-benzodiazol-4-yl)methyl]-2,3-dihydro-1H-imidazol-2-one] here?
A: The IC50 was under 30 µM.

Q: With `CC(CO)(Nc1nc2c(CN3CCNC3=O)cccc2[nH]1)c1ccc(F)c(Cl)c1` (centres unmarked) [Example 34, 1-[(2-{[2-(3-chloro-4-fluorophenyl)-1-hydroxypropan-2-yl]amino}-1H-1,3-benzodiazol-4-yl)methyl]imidazolidin-2-one] as the compound, how does the IC50 read?
A: Its IC50 is under 30 µM.

Q: For `CN1CCN(Cc2cccc3[nH]c(NC(C)(CO)c4ccc(F)c(Cl)c4)nc23)C1=O` (centres unmarked) [Example 35, 1-[(2-{[2-(3-chloro-4-fluorophenyl)-1-hydroxypropan-2-yl]amino}-1H-1,3-benzodiazol-4-yl)methyl]-3-methylimidazolidin-2-one], which IC50 is on record?
A: The IC50 was under 30 µM.

Q: For `CC(CO)(Nc1nc2c(CN3CCSC3=O)cccc2[nH]1)c1ccc(F)c(Cl)c1` (centres unmarked) [Example 36, 3-[(2-{[2-(3-chloro-4-fluorophenyl)-1-hydroxypropan-2-yl]amino}-1H-1,3-benzodiazol-4-yl)methyl]-1,3-thiazolidin-2-one], which IC50 is on record?
A: Its IC50 is under 30 µM.

Q: Which IC50 does the source give for `CC(CO)(Nc1nc2c(CN3CCCC3=O)cccc2[nH]1)c1ccc(F)c(Cl)c1` (centres unmarked) [Example 37, 1-[(2-{[2-(3-chloro-4-fluorophenyl)-1-hydroxypropan-2-yl]amino}-1H-1,3-benzodiazol-4-yl)methyl]pyrrolidin-2-one] here?
A: The IC50 was under 30 µM.

Q: How did the IC50 turn out when `CC(CO)(Nc1nc2c(CNc3ncco3)cccc2[nH]1)c1ccc(F)c(Cl)c1` (centres unmarked) [Example 38, 2-(3-chloro-4-fluorophenyl)-2-[(4-{[(1,3-oxazol-2-yl)amino]methyl}-1H-1,3-benzodiazol-2-yl)amino]propan-1-ol] was run?
A: Its IC50 is under 30 µM.

Source: US11945811B2, “Potassium channel inhibitors” (ACESION PHARMA APS, priority 2021, dated 2024)
